Assay results reported in PMC9870890 (Nature Communications, 2023).
Changes are numbered by the printed parent chain. Like-named read-outs stand apart in the source and are kept apart here.

Tests used:
M2R [1] = target: T1, M2R (Homo sapiens, UniProt P08172); experiment: cell-based; details: for Emax: HEK-293T
T1 sequence (P08172 1-466): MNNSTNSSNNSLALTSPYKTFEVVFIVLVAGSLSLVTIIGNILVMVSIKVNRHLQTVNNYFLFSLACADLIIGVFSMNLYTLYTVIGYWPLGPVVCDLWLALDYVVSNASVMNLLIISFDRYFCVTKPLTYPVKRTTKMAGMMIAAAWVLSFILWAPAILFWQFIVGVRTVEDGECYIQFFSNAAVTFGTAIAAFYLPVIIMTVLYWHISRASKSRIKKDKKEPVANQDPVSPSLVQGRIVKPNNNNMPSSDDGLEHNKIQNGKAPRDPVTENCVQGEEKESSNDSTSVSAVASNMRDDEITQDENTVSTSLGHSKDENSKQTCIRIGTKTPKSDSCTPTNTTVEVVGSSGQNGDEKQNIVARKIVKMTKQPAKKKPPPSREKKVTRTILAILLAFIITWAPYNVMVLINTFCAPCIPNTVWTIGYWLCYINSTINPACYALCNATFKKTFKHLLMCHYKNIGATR
Protocol: Measurement of G-protein mediated activation of M2R was performed applying the IP-One HTRF® accumulation assay (Cisbio, Codolet, France) as previously described protocols[29],[73]. In brief, HEK 293T cells were co-transfected with the cDNA coding for M2R and the hybrid G-protein Gαqi (Gαq protein with the last five amino acids at the C-terminus replaced by the corresponding sequence of Gαi; gift from The J. David Gladstone Institutes, San Francisco, CA) and transferred into 384-well micro plates. […] Accumulation of second messenger was stopped by addition of the detection reagents (IP1-d2 conjugate and Anti-IP1cryptate TB conjugate). […] Normalized concentration-response curves from four to eight experiments each done in duplicates were analyzed using the algorithms for four parameter non-linear regression implemented in PRISM 8.0 (GraphPad Software, USA) to derive EC50 and Emax values.

M2R [2] = target: T2, M2R (Homo sapiens, UniProt P08172, M139L/M142L/M1T/M248L/M296L/M368L/M456T/M45L); format: biochemical; details: for Phosphorylation intensity: 100 μM Ixo or 1 mM carbachol
T2 construct: We used a full-length construct M2RFL△8 M for complexing with miniGαo and β-arrestin-1; FLAG (N); 8xHis (C); made in house; host or cells: Sf9 insect cells
T2 sequence (P08172 1-466 M1T/M45L/M139L/M142L/M248L/M296L/M368L/M456T): T1 sequence (P08172 1-466) with M1T, M45L, M139L, M142L, M248L, M296L, M368L, M456T
Protocol: We used a full-length construct M2RFL△8 M for complexing with miniGαo and β-arrestin-1. The receptor was purified as described above for cryo-EM sample. Excess GRK2 was mixed with the M2R in a buffer composed of 20 mM HEPES pH 7.5, 100 mM NaCl, 0.01% MNG, 0.003% CHS, 500 μM ATP in the presence and absence of 100 μM Ixo or 1 mM carbachol to initiate the phosphorylation at room temperature. The extent of phosphorylation at various time points (from 0 to 120 min) was evaluated by Pro-Q and Coomassie blue staining. The final phosphorylated receptor (Ixo-bound) was further evaluated by ion-exchange chromatography. The complex formation test was performed as follows: unphosphorylated Ixo-bound M2RFL△8 M or phosphorylated M2RFL△8 M was mixed with miniGαo or β-arrestin-1, respectively and incubated on ice for 30 min. The receptor alone or mixed complex sample were then analyzed by SEC against 20 mM HEPES pH 7.5, 100 mM NaCl, 0.01% MNG, 0.003% CHS in the presence of 10 μM Ixo.

`C[N+](C)(C)CC#CCOC1=NOCC1` [Ixo, iperoxo] was tested, and the EC50 (M2R [1]) was 310 ± 43 pM, the Emax (M2R [1]; read-out: Emax in % of acetylcholin, IP accumulation by iperoxo, agonist (absence of LY2119620)) was 115% and the Emax (M2R [1]; read-out: Emax in % of acetylcholin, IP accumulation by iperoxo, agonist + 0.1 µM LY) was 111%. It also gave an Emax (M2R [1]; read-out: Emax in % of acetylcholin, IP accumulation by iperoxo, agonist + 1 µM LY) of 105%, an Emax (M2R [1]; read-out: Emax in % of acetylcholin, IP accumulation by iperoxo, agonist + 3 µM LY) of 104% and an Emax (M2R [1]; read-out: Emax in % of acetylcholin, IP accumulation by iperoxo, agonist + 10 µM LY) of 104%. It also gave an Emax (M2R [1]; read-out: Emax in % of acetylcholin, IP accumulation by iperoxo, agonist + 100 µM LY) of 102%, an Emax (M2R [1]; read-out: IP accumulation as % max effect of acetylcholin, iperoxo log [M] 3-8, 1µM LY2119620) of 103% and an Emax (M2R [1]; read-out: IP accumulation as % max effect of acetylcholin, iperoxo log [M] 3-8, 3µM LY2119620) of 102%. It also gave an Emax (M2R [1]; read-out: IP accumulation as % max effect of acetylcholin, iperoxo log [M] 3-8, 10µM LY2119620) of 99.3%, an Emax (M2R [1]; read-out: IP accumulation as % max effect of acetylcholin, iperoxo log [M] 3-8, 100µM LY2119620) of 98.3% and an Emax (M2R [1]; read-out: IP accumulation as % max effect of acetylcholin, iperoxo log [M] 3-8, no LY2119620) of 111%. It also gave an Emax (M2R [1]; read-out: IP accumulation as % max effect of acetylcholin, iperoxo log [M] 3-9, 0.1µM LY2119620) of 122%, an Emax (M2R [1]; read-out: IP accumulation as % max effect of acetylcholin, iperoxo log [M] 3-9, 1µM LY2119620) of 104% and an Emax (M2R [1]; read-out: IP accumulation as % max effect of acetylcholin, iperoxo log [M] 3-9, 3µM LY2119620) of 106%. The Emax (M2R [1]; read-out: IP accumulation as % max effect of acetylcholin, iperoxo log [M] 3-9, 10µM LY2119620) was 98.3%, the Emax (M2R [1]; read-out: IP accumulation as % max effect of acetylcholin, iperoxo log [M] 3-9, 30µM LY2119620) was 87.5% and the Emax (M2R [1]; read-out: IP accumulation as % max effect of acetylcholin, iperoxo log [M] 3-9, 100µM LY2119620) was 106%. For the same compound, the Emax (M2R [1]; read-out: IP accumulation as % max effect of acetylcholin, iperoxo log [M] 3-9, no LY2119620) was 113%, the Emax (M2R [1]; read-out: IP accumulation as % max effect of acetylcholin, iperoxo log [M] 3-10, 0.1µM LY2119620) was 85.3% and the Emax (M2R [1]; read-out: IP accumulation as % max effect of acetylcholin, iperoxo log [M] 3-10, 1µM LY2119620) was 100%. It also gave an Emax (M2R [1]; read-out: IP accumulation as % max effect of acetylcholin, iperoxo log [M] 3-10, 3µM LY2119620) of 104%, an Emax (M2R [1]; read-out: IP accumulation as % max effect of acetylcholin, iperoxo log [M] 3-10, 10µM LY2119620) of 106% and an Emax (M2R [1]; read-out: IP accumulation as % max effect of acetylcholin, iperoxo log [M] 3-10, 100µM LY2119620) of 104%. The Emax (M2R [1]; read-out: IP accumulation as % max effect of acetylcholin, iperoxo log [M] 3-11, 0.1µM LY2119620) was 26.4%, the Emax (M2R [1]; read-out: IP accumulation as % max effect of acetylcholin, iperoxo log [M] 3-11, 10µM LY2119620) was 94.8% and the Emax (M2R [1]; read-out: IP accumulation as % max effect of acetylcholin, iperoxo log [M] 3-12, 0.1µM LY2119620) was 12.3%. It also gave an Emax (M2R [1]; read-out: IP accumulation as % max effect of acetylcholin, iperoxo log [M] 3-12, 1µM LY2119620) of 35.6%, an Emax (M2R [1]; read-out: IP accumulation as % max effect of acetylcholin, iperoxo log [M] 3-12, 100µM LY2119620) of 80.3% and an Emax (M2R [1]; read-out: IP accumulation as % max effect of acetylcholin, iperoxo log [M] -6, 0.1µM LY2119620) of 108%. The Emax (M2R [1]; read-out: IP accumulation as % max effect of acetylcholin, iperoxo log [M] -6, 1µM LY2119620) was 101%, the Emax (M2R [1]; read-out: IP accumulation as % max effect of acetylcholin, iperoxo log [M] -6, 3µM LY2119620) was 101% and the Emax (M2R [1]; read-out: IP accumulation as % max effect of acetylcholin, iperoxo log [M] -6, 10µM LY2119620) was 104%. The Emax (M2R [1]; read-out: IP accumulation as % max effect of acetylcholin, iperoxo log [M] -6, 30µM LY2119620) was 97%, the Emax (M2R [1]; read-out: IP accumulation as % max effect of acetylcholin, iperoxo log [M] -6, 100µM LY2119620) was 104% and the Emax (M2R [1]; read-out: IP accumulation as % max effect of acetylcholin, iperoxo log [M] -6, no LY2119620) was 102%. It also gave an Emax (M2R [1]; read-out: IP accumulation as % max effect of acetylcholin, iperoxo log [M] -7, 0.1µM LY2119620) of 104%, an Emax (M2R [1]; read-out: IP accumulation as % max effect of acetylcholin, iperoxo log [M] -7, 1µM LY2119620) of 104% and an Emax (M2R [1]; read-out: IP accumulation as % max effect of acetylcholin, iperoxo log [M] -7, 3µM LY2119620) of 98.3%. It also gave an Emax (M2R [1]; read-out: IP accumulation as % max effect of acetylcholin, iperoxo log [M] -7, 10µM LY2119620) of 101%, an Emax (M2R [1]; read-out: IP accumulation as % max effect of acetylcholin, iperoxo log [M] -7, 100µM LY2119620) of 102% and an Emax (M2R [1]; read-out: IP accumulation as % max effect of acetylcholin, iperoxo log [M] -7, no LY2119620) of 107%. It also gave an Emax (M2R [1]; read-out: IP accumulation as % max effect of acetylcholin, iperoxo log [M] -8, 0.1µM LY2119620) of 113%, an Emax (M2R [1]; read-out: IP accumulation as % max effect of acetylcholin, iperoxo log [M] -8, 3µM LY2119620) of 106% and an Emax (M2R [1]; read-out: IP accumulation as % max effect of acetylcholin, iperoxo log [M] -8, 10µM LY2119620) of 102%. The Emax (M2R [1]; read-out: IP accumulation as % max effect of acetylcholin, iperoxo log [M] -8, no LY2119620) was 112%, the Emax (M2R [1]; read-out: IP accumulation as % max effect of acetylcholin, iperoxo log [M] -9, 1µM LY2119620) was 108% and the Emax (M2R [1]; read-out: IP accumulation as % max effect of acetylcholin, iperoxo log [M] -9, 10µM LY2119620) was 106%. It also gave an Emax (M2R [1]; read-out: IP accumulation as % max effect of acetylcholin, iperoxo log [M] -9, 100µM LY2119620) of 108%, an Emax (M2R [1]; read-out: IP accumulation as % max effect of acetylcholin, iperoxo log [M] -10, 3µM LY2119620) of 100% and an Emax (M2R [1]; read-out: IP accumulation as % max effect of acetylcholin, iperoxo log [M] -10, 10µM LY2119620) of 101%. The Emax (M2R [1]; read-out: IP accumulation as % max effect of acetylcholin, iperoxo log [M] -12, 100µM LY2119620) was 94.6%, the Emax (M2R [1]; read-out: IP accumulation as % max effect of acetylcholin, iperoxo log [M] -14, 0.1µM LY2119620) was 18.7% and the Emax (M2R [1]; read-out: IP accumulation as % max effect of acetylcholin, iperoxo log [M] -14, 30µM LY2119620) was 79.3%. The Emax (M2R [1]; read-out: IP accumulation as % max effect of acetylcholin, iperoxo log [M] -14, 100µM LY2119620) was 78.3%, the Phosphorylation intensity (M2R [2]; Time 5 min) was 4552.74 and the Phosphorylation intensity (M2R [2]; Time 10 min) was 10530.1. It also gave a Phosphorylation intensity (M2R [2]; Time 15 min) of 15003.3, a Phosphorylation intensity (M2R [2]; Time 30 min) of 17454.3 and a Phosphorylation intensity (M2R [2]; Time 60 min) of 18635.2. The Phosphorylation intensity (M2R [2]; Time 120 min) was 18093.2 and the “induction of GRK2-mediated phosphorylation of M2R” value (M2R [2]; compared with carbachol) was “more efficient than carbachol”.
